According to patent publication US5998442A, “Benzo [B] thiophene compounds, and compositions for treating bone loss, and hyperlipidemia” (Eli Lilly and Company, priority 1997, dated 1999):
Where two headings read alike, the source gives them in different places. Blank lines part the entries; values can stand above or below the molecule they belong to.

Key:
[1] = system: serum cholesterol, ovariectomized rats; test: Serum cholesterol in ovariectomized rats (4 days daily oral dosing); type: in vivo, rat (female Sprague Dawley); conditions: Rattus norvegicus, 96 h, read-out: Serum Cholesterol (% decrease vs. OVX); for inhibition in vivo at 0.1 mg/kg: 0.1 mg/kg PO; for inhibition in vivo at 1 mg/kg: 1.0 mg/kg PO; for inhibition in vivo at 10 mg/kg: 10.0 mg/kg PO
Method: (§1) In the examples illustrating the methods, a postmenopausal model was used in which effects of different treatments upon circulating lipids were determined.
(§2) Seventy-five day old female Sprague Dawley rats (weight range of 200 to 225 g) were obtained from Charles River Laboratories (Portage, Mich.). The animals were either bilaterally ovariectomized (OVX) or exposed to a Sham surgical procedure at Charles River Laboratories, and then shipped after one week. Upon arrival, they were housed in metal hanging cages in groups of 3 or 4 per cage and had ad libitum access to food (calcium content approximately 0.5%) and water for one week. Room temperature was maintained at 22.2°±1.70° C. with a minimum relative humidity of 40%. The photoperiod in the room was 12 hours light and 12 hours dark.
(§3) After a one week acclimation period (therefore, two weeks post-OVX) daily dosing with test compound was initiated. […] Animals were dosed daily for 4 days. Following the dosing regimen, animals were weighed and anesthetized with a ketamine: Xylazine (2:1, V:V) mixture and a blood sample was collected by cardiac puncture. The animals were then sacrificed by asphyxiation with CO2, the uterus was removed through a midline incision, and a wet uterine weight was determined.
Blood samples were allowed to clot at room temperature for 2 hours, and serum was obtained following centrifugation for 10 minutes at 3000 rpm. Serum cholesterol was determined using a Boehringer Mannheim Diagnostics high performance cholesterol assay. Briefly the cholesterol was oxidized to cholest-4-en-3-one and hydrogen peroxide. The hydrogen peroxide was then reacted with phenol and 4-aminophenazone in the presence of peroxidase to produce a p-quinone imine dye, which was read spectrophotemetrically at 500 nm. Cholesterol concentration was then calculated against a standard curve. The entire assay was automated using a Biomek Automated Workstation. […]
(§4) The data presented in Table 1 below reflects the response of 5 to 6 rats per treatment.

[2] = system: uterus, ovariectomized rats; test: Uterine weight in ovariectomized rats (4 days daily oral dosing); type: in vivo, rat (female Sprague Dawley); conditions: Rattus norvegicus, 96 h, read-out: Uterine weight (% increase vs. OVX); for change in vivo at 0.1 mg/kg: 0.1 mg/kg PO; for change in vivo at 1 mg/kg: 1.0 mg/kg PO; for change in vivo at 10 mg/kg: 10.0 mg/kg PO
Method: as §1, §2, §3
This uterine response to estrogen is well recognized in the art.
as §4

[3] = system: Uterine Eosinophil Peroxidase (EPO); test: Uterine Eosinophil Peroxidase (EPO) Assay in ovariectomized rats; type: in vivo, rat (female Sprague Dawley); set-up: Uterine EPO (Vmax): unit not given here
Excerpt: as §2, §3
Uteri were kept at 4° C. until time of enzymatic analysis. The uteri were then homogenized in 50 volumes of 50 mM Tris buffer (pH-8.0) containing 0.005% Triton X-100. Upon addition of 0.01% hydrogen peroxide and 10 mM O-phenylenediamine (final concentrations) in Tris buffer, increase in absorbance was monitored for one minute at 450 nm. The presence of eosonophils in the uterus is an indication of estrogenic activity of a compound. The maximal velocity of a 15 second interval was determined over the initial, linear portion of the reaction curve.
As is expressed in the data below, estrogenicity also was assessed by evaluating the adverse response of eosinophil infiltration into the uterus.
as §4

[4] = system: MCF-7 breast adenocarcinoma cells; test: MCF-7 Proliferation Assay (tritiated thymidine); type: cell-based
Method: MCF-7 breast adenocarcinoma cells (ATCC HTB 22) were maintained in MEM (minimal essential medium, phenol red-free, Sigma, St. Louis, Mo.) supplimented with 10% fetal bovine serum (FBS) (V/V), L-glutamine (2 mM), sodium pyruvate (1 mM), HEPES {(N-[2-hydroxyethyl]piperazine-N'-[2-ethanesulfonic acid]10 mM}, non-essential amino acids and bovine insulin (1 ug/mL) (maintenance medium). Ten days prior to assay, MCF-7 cells were switched to maintenance medium supplemented with 10% dextran coated charcoal stripped fetal bovine serum (DCC-FBS) assay medium) in place of 10% FBS to deplete internal stores of steroids. MCF-7 cells were removed from maintenance flasks using cell dissociation medium (Ca++/Mg++ free HBSS (phenol red-free) supplemented with 10 mM HEPES and 2 mM EDTA). Cells were washed twice with assay medium and adjusted to 80,000 cells/mL. Approximately […] (8,000 cells) were added to flat-bottom microculture wells (Costar 3596) and incubated at 37° C. in a 5% CO2 humidified incubator for 48 hours to allow for cell adherence and equilibration after transfer. Serial dilutions of drugs or DMSO as a diluent control were prepared in assay medium and […] to triplicate microcultures followed by […] assay medium for a final volume of […]. After an additional 48 hours at 37° C. in a 5% CO2 humidified incubator, microcultures were pulsed with tritiated thymidine (1 uCi/well) for 4 hours. Cultures were terminated by freezing at -70° C. for 24 hours followed by thawing and harvesting of microcultures using a Skatron Semiautomatic Cell Harvester. Samples were counted by liquid scintillation using a Wallac BetaPlace b counter. Results in Table 4 below show the IC50 for certain compounds of the instant invention. […]

[5] = Homo sapiens, MCF7, 48 hours, read-out: IC50

IC50 [4, 5]: 1 nM
Compound: Cc1cc(-c2sc3cc(O)ccc3c2C(=O)c2ccc(OCCN3CCCCC3)cc2)ccc1O [Example 7, [2-(3-Methyl-4-hydroxyphenyl)-6-hydroxybenzo[b]thien-3-yl][4-[2-(1-piperidinyl)ethoxy]phenyl]methanone]
inhibition in vivo at 0.1 mg/kg [1]: 53.7%
inhibition in vivo at 1 mg/kg [1]: 77.6%
inhibition in vivo at 10 mg/kg [1]: 49.7%
change in vivo at 0.1 mg/kg [2]: 7.6%
change in vivo at 1 mg/kg [2]: 15.6%
change in vivo at 10 mg/kg [2]: 24.6%
Uterine EPO (Vmax) ([3]; 0.1 mg/kg PO): 4.9
Uterine EPO (Vmax) ([3]; 1.0 mg/kg PO): 2.5
Uterine EPO (Vmax) ([3]; 10.0 mg/kg PO): 2.8

IC50 [4, 5]: 10 nM
Compound: O=C(c1ccc(OCCN2CCCCC2)cc1)c1c(-c2ccccc2O)sc2cc(O)ccc12 [Example 10, [2-(2-Hydroxyphenyl)-6-hydroxybenzo[b]thien-3-yl][4-[2-(1-piperidinyl)ethoxy]phenyl]methanone]
inhibition in vivo at 0.1 mg/kg [1]: 7.8%
inhibition in vivo at 1 mg/kg [1]: 19.5%
inhibition in vivo at 10 mg/kg [1]: 33.2%
change in vivo at 0.1 mg/kg [2]: -18.3%
change in vivo at 1 mg/kg [2]: -21%
change in vivo at 10 mg/kg [2]: 10.6%
Uterine EPO (Vmax) ([3]; 0.1 mg/kg PO): 2.8
Uterine EPO (Vmax) ([3]; 1.0 mg/kg PO): 1.7
Uterine EPO (Vmax) ([3]; 10.0 mg/kg PO): 3.7

IC50 [4, 5]: 2 nM
Compound: Cc1cc(O)ccc1-c1sc2cc(O)ccc2c1C(=O)c1ccc(OCCN2CCCCC2)cc1 [Example 16, [2-(2-Methyl-4-hydroxyphenyl)-6-hydroxybenzo[b]thien-3-yl][4-[2-(1-piperidinyl)ethoxy]phenyl]methanone]
inhibition in vivo at 0.1 mg/kg [1]: 39.2%
inhibition in vivo at 1 mg/kg [1]: 62.6%
inhibition in vivo at 10 mg/kg [1]: 68.5%
change in vivo at 0.1 mg/kg [2]: 54.5%
change in vivo at 1 mg/kg [2]: 53.7%
change in vivo at 10 mg/kg [2]: 62.7%
Uterine EPO (Vmax) ([3]; 0.1 mg/kg PO): 8.1
Uterine EPO (Vmax) ([3]; 1.0 mg/kg PO): 8.4
Uterine EPO (Vmax) ([3]; 10.0 mg/kg PO): 8.1

IC50 [4, 5]: 300 nM
Compound: COc1ccc(-c2sc3cc(OC)ccc3c2C(=O)c2ccc(OCCN3CCCCC3)cc2)c(OC)c1 [Example 17, [2-(2,4-Dimethoxyphenyl)-6-methoxybenzo[b]thien-3-yl] [4-[2-(1-piperidinyl)ethoxy]phenyl]methanone]
inhibition in vivo at 0.1 mg/kg [1]: 51.4%
inhibition in vivo at 1 mg/kg [1]: 68.5%
inhibition in vivo at 10 mg/kg [1]: 67.2%
change in vivo at 0.1 mg/kg [2]: 40.1%
change in vivo at 1 mg/kg [2]: 66.1%
change in vivo at 10 mg/kg [2]: 53.7%
Uterine EPO (Vmax) ([3]; 0.1 mg/kg PO): 20.4
Uterine EPO (Vmax) ([3]; 1.0 mg/kg PO): 102.0
Uterine EPO (Vmax) ([3]; 10.0 mg/kg PO): 20.1

IC50 [4, 5]: 2 nM
Compound: COc1cc(O)ccc1-c1sc2cc(O)ccc2c1C(=O)c1ccc(OCCN2CCCCC2)cc1 [Example 18, [2-(4-Hydroxy-2-methoxyphenyl)-6-hydroxybenzo[b]thien-3-yl] [4-[2-(1-piperidinyl)ethoxy]phenyl]methanone]
inhibition in vivo at 0.1 mg/kg [1]: 58.8%
inhibition in vivo at 1 mg/kg [1]: 79%
inhibition in vivo at 10 mg/kg [1]: 71.6%
change in vivo at 0.1 mg/kg [2]: 64.1%
change in vivo at 1 mg/kg [2]: 69.2%
change in vivo at 10 mg/kg [2]: 73.3%
Uterine EPO (Vmax) ([3]; 0.1 mg/kg PO): 34.2
Uterine EPO (Vmax) ([3]; 1.0 mg/kg PO): 81.9
Uterine EPO (Vmax) ([3]; 10.0 mg/kg PO): 135.9

IC50 ([4]; 48 hours): Not active
Compound: COc1ccc2c(C(=O)c3ccc(OCCN4CCCCC4)cc3)c(-c3ccc(C(F)(F)F)cc3)sc2c1 [Example 19, [2-(4-Trifluoromethylphenyl)-6-methoxybenzo[b]thien-3-yl][4-[2-(1-piperidinyl)ethoxy]phenyl]methanone]
inhibition in vivo at 0.1 mg/kg [1]: 22.3%
inhibition in vivo at 1 mg/kg [1]: 3.1%
inhibition in vivo at 10 mg/kg [1]: 20.6%
change in vivo at 0.1 mg/kg [2]: 10.3%
change in vivo at 1 mg/kg [2]: 15.6%
change in vivo at 10 mg/kg [2]: 16.6%
Uterine EPO (Vmax) ([3]; 0.1 mg/kg PO): 6.8
Uterine EPO (Vmax) ([3]; 1.0 mg/kg PO): 4.3
Uterine EPO (Vmax) ([3]; 10.0 mg/kg PO): 4

The next lines start with the molecule.

Compound: O=C(c1ccc(OCCN2CCCCC2)cc1)c1c(-c2ccc(O)c(Cl)c2)sc2cc(O)ccc12 [Example 5, [2-(3-Chloro-4-hydroxyphenyl)-6-hydroxybenzo[b]thien-3-yl][4-[2-(1-piperidinyl)ethoxy]phenyl]methanone]
inhibition in vivo at 0.1 mg/kg [1]: 18.6%
inhibition in vivo at 1 mg/kg [1]: 52.6%
inhibition in vivo at 10 mg/kg [1]: 71.5%
change in vivo at 0.1 mg/kg [2]: -22.6%
change in vivo at 1 mg/kg [2]: 20.7%
change in vivo at 10 mg/kg [2]: 30.2%
Uterine EPO (Vmax) ([3]; 0.1 mg/kg PO): 1.2
Uterine EPO (Vmax) ([3]; 1.0 mg/kg PO): 2.4
Uterine EPO (Vmax) ([3]; 10.0 mg/kg PO): 1.3
IC50 [4, 5]: 2.3 nM

Compound: COc1ccc2c(C(=O)c3ccc(OCCN4CCCCC4)cc3)c(-c3ccc(OC)c(OC)c3)sc2c1 [Example 8, [2-(3,4-Dimethoxyphenyl)-6-methoxybenzo[b]thien-3-yl][4-[2-(1-piperidinyl)ethoxy]phenyl]methanone]
inhibition in vivo at 0.1 mg/kg [1]: 24.8%
inhibition in vivo at 1 mg/kg [1]: 57.8%
inhibition in vivo at 10 mg/kg [1]: 60.8%
change in vivo at 0.1 mg/kg [2]: -8.3%
change in vivo at 1 mg/kg [2]: 23.4%
change in vivo at 10 mg/kg [2]: 24.1%
Uterine EPO (Vmax) ([3]; 0.1 mg/kg PO): 1.3
Uterine EPO (Vmax) ([3]; 1.0 mg/kg PO): 4.4
Uterine EPO (Vmax) ([3]; 10.0 mg/kg PO): 11.2

Compound: O=C(Oc1cccc(-c2sc3cc(OC(=O)c4ccccc4)ccc3c2C(=O)c2ccc(OCCN3CCCCC3)cc2)c1)c1ccccc1 [Example 13, [2-(3-Benzoyloxyphenyl)-6-benzoyloxybenzo[b]thien-3-yl][4-[2-(1-piperidinyl)ethoxy]phenyl]methanone]
inhibition in vivo at 0.1 mg/kg [1]: 25.3%
inhibition in vivo at 1 mg/kg [1]: 45.7%
inhibition in vivo at 10 mg/kg [1]: 61.4%
change in vivo at 0.1 mg/kg [2]: -18.6%
change in vivo at 1 mg/kg [2]: 34.7%
change in vivo at 10 mg/kg [2]: 27.6%
Uterine EPO (Vmax) ([3]; 0.1 mg/kg PO): 3.0
Uterine EPO (Vmax) ([3]; 1.0 mg/kg PO): 6.0
Uterine EPO (Vmax) ([3]; 10.0 mg/kg PO): 8.4

Compound: O=C(c1ccc(OCCN2CCCCC2)cc1)c1c(-c2ccc(C(F)(F)F)cc2)sc2cc(O)ccc12 [Example 20, [2-(4-Trifluoromethylphenyl)-6-hydroxybenzo[b]thien-3-yl][4-[2-(1-piperidinyl)ethoxy]phenyl]methanone]
inhibition in vivo at 0.1 mg/kg [1]: 45.5%
inhibition in vivo at 1 mg/kg [1]: 47.9%
inhibition in vivo at 5 mg/kg ([1]; 5.0 mg/kg PO): 71.5%
change in vivo at 0.1 mg/kg [2]: -2%
change in vivo at 1 mg/kg [2]: 7%
change in vivo at 5 mg/kg ([2]; 5.0 mg/kg PO): 37.4%
Uterine EPO (Vmax) ([3]; 0.1 mg/kg PO): 1.8
Uterine EPO (Vmax) ([3]; 1.0 mg/kg PO): 7
Uterine EPO (Vmax) ([3]; 5.0 mg/kg PO): 16.4
IC50 [4, 5]: 1000 nM

Compound: C[C@]12CC[C@@H]3c4ccc(O)cc4CC[C@H]3[C@@H]1CC[C@@H]2O [estradiol, reference compound]
eosinophil infiltration into the uterus (in words) ([3]; stromal layer of ovariectomized rats): substantial, expected increase in eosinophil infiltration
